Measurements from patent US20230286973A1, “PROTEIN SECRETION INHIBITORS” (KEZAR LIFE SCIENCES, priority 2020, published 2023).

Experiments:
[1] = test system: multiple myeloma cell line U266B1; assay: U266 Cell Viability Assay; type: cell-based, human; settings: Homo sapiens, U-266, 48 h, U266B1 cells, Celltiter-Glo
Method in brief: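 U266B1 multiple myeloma cells in RPMI 1640/10% FBS were treated with compound dilutions for 48 h at 37 °C, 5% CO2. Viability was measured by CellTiter-Glo luminescence; compounds drawn without stereochemistry were tested as stereoisomer mixtures.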

[2] = test system: multiple myeloma cell line NCI-H929; assay: H929 Cell Viability Assay; type: cell-based, human; settings: Homo sapiens, NCI-H929, 48 h, NCI-H929 cells, Celltiter-Glo
Method in brief: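 NCI-H929 cells in RPMI 1640 with 10% FBS were treated with compound dilutions for 48 h at 37° C, 5% CO2. Viability was read by CellTiter-Glo luminescence. Undefined stereocentres denote stereoisomer mixtures.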

[3] = test system: PD1-ss+10aa/Gaussia Luciferase; assay: Dox-Induced PD1-ss-Gluc Assay; type: cell-based; settings: 24 hr Dox induction; 293FRT/TO cells; mean; read-out: 24 hr Dox Inducible PD1ssGluc 293FRT/TO: Mean IC50
Method in brief: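 Flp-In 293 T-REx, stable line; Tet-regulated PD1-ss+10aa fused to Gaussia luciferase; plated day prior; cpd + doxycycline in DMSO/media; 37 °C, 5% CO2.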

[4] = test system: HER3-ss+4aa/Gaussia Luciferase; assay: Dox-Induced Her3-ss-Gluc Assay; type: cell-based; settings: 24 hr Dox induction; 293FRT/TO cells; mean; read-out: 24 hr Dox Inducible Her3(ss + 4)Gluc 293FRT/TO: Mean IC50
Method in brief: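 Stable Flp-In 293 T-REx cells carried a doxycycline-inducible HER3 signal sequence (+4 aa) fused to Gaussia luciferase. Cells were plated the day before the assay. Compound dilutions in DMSO/media containing doxycycline were then added, and plates were incubated at 37 °C, 5% CO2.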

[5] = test system: IL-2-FL/Gaussia Luciferase; assay: Dox Induced IL2-FL-Gluc Assay; type: cell-based; settings: for IC50: 24 hr Dox induction, 293FRT/TO cells, mean, read-out: 24 hr Dox Inducible IL2FLGluc 293FRT/TO: Mean IC50; for 24 hr Dox Inducible IL2FLGluc 293FRT/TO: IL2/PD1: ratio of IL2FLGluc IC50 to PD1ssGluc IC50, '<=>' given where both are I.A.
Method in brief: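 Stable Flp-In 293 T-REx cells carrying doxycycline-inducible full-length IL-2 (aa 1-153) fused to Gaussia luciferase, plated the day before assay. Compound dilutions added in medium containing doxycycline, incubated at 37 °C, 5% CO2. Undefined stereocentres mean data refer to stereoisomer mixtures.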

[6] = Liver Microsome Stability Assay (mouse); settings: mouse liver microsomes, with NADPH, 1.0 uM compound
Description: (§1) Stability of a compound was assessed in the presence of liver microsomes from various sources—mouse, rat, monkey and human liver microsomes. 1.0 uM compound, 0.4% DMSO in 0.1 M Potassium Phosphate with 1.0 mg/mL liver microsomes, were incubated at 37° C. with or without 1 mM NADPH. The samples were quenched at 0, and 30 minutes.

[7] = Liver Microsome Stability Assay (monkey); settings: monkey liver microsomes, with NADPH, 1.0 uM compound
Description: as §1

[8] = test system: TNFα-FL/Gaussia Luciferase; assay: Dox Induced TNFα-FL-Gluc Assay; type: cell-based; settings: for IC50: 24 hr Dox induction, 293FRT/TO cells, mean, read-out: 24 hr Dox Inducible TNFaFLGluc 293FRT/TO: Mean IC50; for 24 hr Dox Inducible TNFaFLGluc 293FRT/TO: TNF/PD1: ratio of TNFaFLGluc IC50 to PD1ssGluc IC50, '<=>' given where both are I.A.
Method in brief: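 Flp-In 293 T-REx cells stably carrying doxycycline-inducible full-length TNFα (aa 1-233) fused to Gaussia luciferase. Plated the day before, then treated with compound dilutions in doxycycline-containing medium at 37° C, 5% CO2.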

[9] = Liver Microsome Stability Assay (human); settings: human liver microsomes, with NADPH, 1.0 uM compound
Description: as §1

[10] = Liver Microsome Stability Assay (rat); settings: rat liver microsomes, with NADPH, 1.0 uM compound
Description: as §1

| EC50 [1] | EC50 [2] | IC50 [3] | IC50 [4] | IC50 [5] | Liver Microsome Stability (Multiple Species): Mouse - % Remaining after 30 min w/NADPH [6] | Liver Microsome Stability (Multiple Species): Monkey - % Remaining after 30 min w/NADPH [7] | IC50 [8] | Liver Microsome Stability (Multiple Species): Human - % Remaining after 30 min w/NADPH [9] | Liver Microsome Stability (Multiple Species): Rat - % Remaining after 30 min w/NADPH [10] | SMILES | 24 hr Dox Inducible IL2FLGluc 293FRT/TO: IL2/PD1 [5] | 24 hr Dox Inducible TNFaFLGluc 293FRT/TO: TNF/PD1 [8] |
| --- | --- | --- | --- | --- | --- | --- | --- | --- | --- | --- | --- | --- |
| > 25 µM | > 25 µM | 2.2 µM | 2.42 µM | 2.88 µM | 65.6% | 63% | > 25 µM | 87.9% | 67.5% | O=C(Nc1nc([C@H]2CCCN2c2ccccc2)cs1)c1cccn1Cc1ccccc1 [Compound C5, (R)-1-benzyl-N-(4-(1-phenylpyrrolidin-2-yl)thiazol-2-yl)-1H-pyrrole-2-carboxamide] | 1.3 | >11.4 |
| 15.3 µM | 11.8 µM | 2.6 µM | 5.22 µM | 7.29 µM | 31.1% | 7.86% | > 25 µM | 32.8% | 8.19% | N#CC1CC1Cn1cccc1C(=O)Nc1nc([C@H]2CCCN2c2ccccc2)cs1 (stereo partly drawn) [Compound C6, 1-((2-cyanocyclopropyl)methyl)-N-(4-((R)-1-phenylpyrrolidin-2-yl)thiazol-2-yl)-1H-pyrrole-2-carboxamide] | 2.8 | >9.60 |
| > 25 µM | > 25 µM | 3.7 µM | 7.97 µM | > 25 µM | 26.6% | 10.4% | > 25 µM | 39.7% | 27.6% | NC(=O)CCCn1cccc1C(=O)Nc1nc([C@H]2CCCN2c2ccccc2)cs1 [Compound C7] | 6.8 | >6.75 |
| > 25 µM | > 25 µM | 3.78 µM | 9.47 µM | 22.4 µM | 1.66% | 1.37% | > 25 µM | 5.88% | 8.76% | N#CCC1(Cn2cccc2C(=O)Nc2nc([C@H]3CCCN3c3ccccc3)cs2)CC1 [Compound C8, (R)-1-((1-(cyanomethyl)cyclopropyl)methyl)-N-(4-(1-phenylpyrrolidin-2-yl)thiazol-2-yl)-1H-pyrrole-2-carboxamide] | 5.9 | >6.61 |
| > 25 µM | > 25 µM | 4.56 µM | 6.1 µM | 7.54 µM | 0.81% | 0.38% | > 25 µM | 3.68% | 8.24% | N#CCC1(Cn2cccc2C(=O)Nc2nc([C@H]3CCCN3c3ccccc3)cs2)CCC1 [Compound C9, (R)-1-((1-(cyanomethyl)cyclobutyl)methyl)-N-(4-(1-phenylpyrrolidin-2-yl)thiazol-2-yl)-1H-pyrrole-2-carboxamide] | 1.7 | >5.49 |
